Test system: HCT-116 cell line
Assay: Inhibition of cell growth, tetrazolium salt (MTT) assay
Format: cell-based
Details: HCT116 cells; compound at 250 nM; 0.25 µM
Procedure: Inhibition of Cell Growth: Assessment of Cytotoxicity:
Inhibition of cell growth was measured using the tetrazolium salt assay, which is based on the ability of viable cells to reduce 3-(4,5-dimethylthiazol-2-yl)-2,5-[2H]-diphenyltetrazolium bromide (MTT) to formazan (Mossman, Journal of Immunological Methods, vol. 65 (1983), pp. 55-58). The water-insoluble purple formazan product was then detected spectrophotometrically. The HCT-116 cell line was used as a representative cancer cell line and grown in 96-well plates. Cells were plated in McCoy's 5A Medium at a volume of 135 μl/well. Plates were incubated for four hours before addition of inhibitor compounds. Different concentrations of inhibitor compounds were added in 0.5% (v/v) dimethylsulfoxide (15 μLuwell), and cells were incubated at 37° C. (5% CO2) for three to five days. At the end of the incubation, MTT was added to a final concentration of 0.2 mg/mL, and cells were incubated for 4 hours more at 37° C. After centrifugation of the plates and removal of medium, the absorbance of the formazan (solubilized in dimethylsulfoxide) was measured at 540 nm. […] All results were compared to control cells treated only with 0.5% (v/v) dimethylsulfoxide.

| Structure (SMILES) | % Inhibition HCT116 @ 250 nM [%] |
| --- | --- |
| Nc1nc(NC2CCN(S(=O)(=O)CCNCc3cccnc3)CC2)sc1C(=O)c1c(F)cccc1F [Example S56] | 73 |
| Nc1nc(NC2CCN(S(=O)(=O)CCNCc3cccnc3)CC2)sc1C(=O)c1c(F)cccc1F [Example S84] | 12 |

Same assay, conditions: Homo sapiens, HCT-116, HCT116 cells; compound at 250 nM; read-out: % Inhibition HCT116 @ 250 nM

| Structure (SMILES) | inhibition at 0.25 µM [%] |
| --- | --- |
| CCN(CCS(=O)(=O)N1CCC(Nc2nc(N)c(C(=O)c3c(F)cccc3F)s2)CC1)Cc1ccncc1 [Example S45] | 13 |
| COCCN(CCOC)CCS(=O)(=O)N1CCC(Nc2nc(N)c(C(=O)c3c(F)cccc3F)s2)CC1 [Example S46] | 58 |
| C=CC(O)CN(CCC)CCS(=O)(=O)N1CCC(Nc2nc(N)c(C(=O)c3c(F)cccc3F)s2)CC1 (stereo not shown) [Example S47] | 8 |
| NC(=O)C1CCN(CCS(=O)(=O)N2CCC(Nc3nc(N)c(C(=O)c4c(F)cccc4F)s3)CC2)CC1 [Example S48] | 17 |
| COC(=O)CN(C)CCS(=O)(=O)N1CCC(Nc2nc(N)c(C(=O)c3c(F)cccc3F)s2)CC1 [Example S49] | 33 |
| CN(CCc1ccncc1)CCS(=O)(=O)N1CCC(Nc2nc(N)c(C(=O)c3c(F)cccc3F)s2)CC1 [Example S50] | 17 |
| C=C(C)CN(C)CCS(=O)(=O)N1CCC(Nc2nc(N)c(C(=O)c3c(F)cccc3F)s2)CC1 [Example S51] | 83 |
| CC(=O)N1CCN(CCS(=O)(=O)N2CCC(Nc3nc(N)c(C(=O)c4c(F)cccc4F)s3)CC2)CC1 [Example S52] | 18 |
| CN(CC#N)CCS(=O)(=O)N1CCC(Nc2nc(N)c(C(=O)c3c(F)cccc3F)s2)CC1 [Example S53] | 17 |
| Nc1nc(NC2CCN(S(=O)(=O)CCN3CCC[C@@H]3CO)CC2)sc1C(=O)c1c(F)cccc1F [Example S54] | 16 |
| CN(CCS(=O)(=O)N1CCC(Nc2nc(N)c(C(=O)c3c(F)cccc3F)s2)CC1)CC(=O)N(C)C [Example S55] | 7 |
| Nc1nc(NC2CCN(S(=O)(=O)CCNC3CCCCC3)CC2)sc1C(=O)c1c(F)cccc1F [Example S58] | 50 |
| Nc1nc(NC2CCN(S(=O)(=O)CCNC3CCC3)CC2)sc1C(=O)c1c(F)cccc1F [Example S59] | 40 |
| Nc1nc(NC2CCN(S(=O)(=O)CCNC3CC3)CC2)sc1C(=O)c1c(F)cccc1F [Example S60] | 72 |
| CN(C)[C@H]1CCN(CCS(=O)(=O)N2CCC(Nc3nc(N)c(C(=O)c4c(F)cccc4F)s3)CC2)C1 [Example S61] | 8 |
| CN(C)[C@@H]1CCN(CCS(=O)(=O)N2CCC(Nc3nc(N)c(C(=O)c4c(F)cccc4F)s3)CC2)C1 [Example S62] | 6 |
| Nc1nc(NC2CCN(S(=O)(=O)CCN3CCC(CO)CC3)CC2)sc1C(=O)c1c(F)cccc1F [Example S63] | 4 |
| NC(=O)[C@H]1CCCN1CCS(=O)(=O)N1CCC(Nc2nc(N)c(C(=O)c3c(F)cccc3F)s2)CC1 [Example S64] | 12 |
| COCCN(C)CCS(=O)(=O)N1CCC(Nc2nc(N)c(C(=O)c3c(F)cccc3F)s2)CC1 [Example S65] | 8 |
| CN(C)C(=O)[C@H]1CCCN1CCS(=O)(=O)N1CCC(Nc2nc(N)c(C(=O)c3c(F)cccc3F)s2)CC1 [Example S66] | 14 |
| Nc1nc(NC2CCN(S(=O)(=O)CCNCC3CCCCC3)CC2)sc1C(=O)c1c(F)cccc1F [Example S67] | 40 |

| Structure (SMILES) | inhibition at 0.25 µM [%] |
| --- | --- |
| Nc1nc(NC2CCN(S(=O)(=O)CCNC3CCCc4ccccc43)CC2)sc1C(=O)c1c(F)cccc1F (stereo not shown) [Example S68] | 21 |
| CN1CCCC1CCNCCS(=O)(=O)N1CCC(Nc2nc(N)c(C(=O)c3c(F)cccc3F)s2)CC1 (stereo not shown) [Example S69] | 31 |
| CCN1CCCC1CNCCS(=O)(=O)N1CCC(Nc2nc(N)c(C(=O)c3c(F)cccc3F)s2)CC1 (stereo not shown) [Example S70] | 23 |
| Nc1nc(NC2CCN(S(=O)(=O)CCNCCCN3CCCC3=O)CC2)sc1C(=O)c1c(F)cccc1F [Example S71] | 23 |
| Nc1nc(NC2CCN(S(=O)(=O)CCNCc3ccco3)CC2)sc1C(=O)c1c(F)cccc1F [Example S72] | 19 |
| Nc1nc(NC2CCN(S(=O)(=O)CCNC3CCc4ccccc43)CC2)sc1C(=O)c1c(F)cccc1F (stereo not shown) [Example S73] | 16 |
| CC(C)C(CO)NCCS(=O)(=O)N1CCC(Nc2nc(N)c(C(=O)c3c(F)cccc3F)s2)CC1 (stereo not shown) [Example S74] | 9 |
| Nc1nc(NC2CCN(S(=O)(=O)CCNCCc3cnc[nH]3)CC2)sc1C(=O)c1c(F)cccc1F [Example S75] | 12 |
| Nc1nc(NC2CCN(S(=O)(=O)CCN[C@@H]3CONC3=O)CC2)sc1C(=O)c1c(F)cccc1F [Example S76] | 11 |
| Nc1nc(NC2CCN(S(=O)(=O)CCNCC3CCCO3)CC2)sc1C(=O)c1c(F)cccc1F (stereo not shown) [Example S77] | 9 |
| CC(NCCS(=O)(=O)N1CCC(Nc2nc(N)c(C(=O)c3c(F)cccc3F)s2)CC1)c1ccccc1 (stereo not shown) [Example S78] | 49 |
| Nc1nc(NC2CCN(S(=O)(=O)CCN[C@@H](CO)c3ccccc3)CC2)sc1C(=O)c1c(F)cccc1F [Example S79] | 14 |
| CC(C)(CO)NCCS(=O)(=O)N1CCC(Nc2nc(N)c(C(=O)c3c(F)cccc3F)s2)CC1 [Example S80] | 13 |
| CC(C)(C)NCCS(=O)(=O)N1CCC(Nc2nc(N)c(C(=O)c3c(F)cccc3F)s2)CC1 [Example S81] | 82 |
| Nc1nc(NC2CCN(S(=O)(=O)CCNCCN3CCCCC3)CC2)sc1C(=O)c1c(F)cccc1F [Example S82] | 15 |
| Nc1nc(NC2CCN(S(=O)(=O)CCNCc3ccncc3)CC2)sc1C(=O)c1c(F)cccc1F [Example S83] | 6 |
| Nc1nc(NC2CCN(S(=O)(=O)CCNCCc3ccccn3)CC2)sc1C(=O)c1c(F)cccc1F [Example S85] | 19 |
| Nc1nc(NC2CCN(S(=O)(=O)CCNCc3ccccn3)CC2)sc1C(=O)c1c(F)cccc1F [Example S86] | 11 |
| Nc1nc(NC2CCN(S(=O)(=O)CCNCCN3CCOCC3)CC2)sc1C(=O)c1c(F)cccc1F [Example S87] | 13 |
| Nc1nc(NC2CCN(S(=O)(=O)CCNCc3cccs3)CC2)sc1C(=O)c1c(F)cccc1F [Example S88] | 28 |
| COCC(C)NCCS(=O)(=O)N1CCC(Nc2nc(N)c(C(=O)c3c(F)cccc3F)s2)CC1 (stereo not shown) [Example S89] | 17 |

| Structure (SMILES) | inhibition at 0.25 µM [%] |
| --- | --- |
| CC(CO)NCCS(=O)(=O)N1CCC(Nc2nc(N)c(C(=O)c3c(F)cccc3F)s2)CC1 (stereo not shown) [Example S90] | 7 |
| CCOC(=O)CC(C)NCCS(=O)(=O)N1CCC(Nc2nc(N)c(C(=O)c3c(F)cccc3F)s2)CC1 (stereo not shown) [Example S91] | 10 |
| CCC(CO)NCCS(=O)(=O)N1CCC(Nc2nc(N)c(C(=O)c3c(F)cccc3F)s2)CC1 (stereo not shown) [Example S92] | 8 |
| CCCC(C)NCCS(=O)(=O)N1CCC(Nc2nc(N)c(C(=O)c3c(F)cccc3F)s2)CC1 (stereo not shown) [Example S93] | 33 |
| Nc1nc(NC2CCN(S(=O)(=O)CCNCc3ccccc3)CC2)sc1C(=O)c1c(F)cccc1F [Example S94] | 64 |
| Nc1nc(NC2CCN(S(=O)(=O)CCNCc3ccccc3F)CC2)sc1C(=O)c1c(F)cccc1F [Example S95] | 51 |
| Nc1nc(NC2CCN(S(=O)(=O)CCNCc3ccccc3Cl)CC2)sc1C(=O)c1c(F)cccc1F [Example S96] | 48 |
| COc1ccccc1CNCCS(=O)(=O)N1CCC(Nc2nc(N)c(C(=O)c3c(F)cccc3F)s2)CC1 [Example S97] | 25 |
| Cc1ccccc1CNCCS(=O)(=O)N1CCC(Nc2nc(N)c(C(=O)c3c(F)cccc3F)s2)CC1 [Example S98] | 49 |
| Nc1nc(NC2CCN(S(=O)(=O)CCNCc3cccc(F)c3)CC2)sc1C(=O)c1c(F)cccc1F [Example S99] | 43 |
| COc1cccc(CNCCS(=O)(=O)N2CCC(Nc3nc(N)c(C(=O)c4c(F)cccc4F)s3)CC2)c1 [Example S100] | 38 |
| Cc1cccc(CNCCS(=O)(=O)N2CCC(Nc3nc(N)c(C(=O)c4c(F)cccc4F)s3)CC2)c1 [Example S101] | 80 |
| Nc1nc(NC2CCN(S(=O)(=O)CCNCc3ccc(F)cc3)CC2)sc1C(=O)c1c(F)cccc1F [Example S102] | 57 |
| Nc1nc(NC2CCN(S(=O)(=O)CCNCc3ccc(Cl)cc3)CC2)sc1C(=O)c1c(F)cccc1F [Example S103] | 25 |
| COc1ccc(CNCCS(=O)(=O)N2CCC(Nc3nc(N)c(C(=O)c4c(F)cccc4F)s3)CC2)cc1 [Example S104] | 31 |
| Cc1ccc(CNCCS(=O)(=O)N2CCC(Nc3nc(N)c(C(=O)c4c(F)cccc4F)s3)CC2)cc1 [Example S105] | 33 |
| Nc1nc(NC2CCN(S(=O)(=O)CCNCC(F)(F)F)CC2)sc1C(=O)c1c(F)cccc1F [Example S106] | 98 |
| CC(C)(C)CNCCS(=O)(=O)N1CCC(Nc2nc(N)c(C(=O)c3c(F)cccc3F)s2)CC1 [Example S107] | 98 |
| COC(CNCCS(=O)(=O)N1CCC(Nc2nc(N)c(C(=O)c3c(F)cccc3F)s2)CC1)OC [Example S108] | 16 |
| Nc1nc(NC2CCN(S(=O)(=O)CCNCC(O)c3ccccc3)CC2)sc1C(=O)c1c(F)cccc1F (stereo not shown) [Example S109] | 19 |

— patent publication US20050101595A1, “N-containing cycloalkyl-substituted amino-thiazole derivatives and pharmaceutical compositions for inhibiting cell proliferation and methods for their use” (PFIZER INC., priority 2003, published 2005)
